{"source": "patent US8697385B1", "about": "“Protein controlling synthesis of collagen and associated methods” (Florida State University Research Foundation, Inc., priority 2009, dated 2014)", "key": {"[1]": {"test_system": "nonmuscle myosin filaments", "experiment": "Immunostaining of nonmuscle myosin IIB filaments in lung fibroblasts", "type": "cell-based", "conditions": "human lung fibroblasts; ML-7 40 μM 16 h; untreated cells show prominent filaments", "description": "ML-7, blebbistatin, cytochalasin B, puromycin, and cycloheximide were purchased from Sigma. ML-7 was used at 40 μM, blebbistatin was used at 100 μM, and cytochalasin B was used at 20 μM. Cells were incubated with the drugs for 16 h before analysis. Puromycin (200 μg/ml) and cycloheximide (100 μg/ml) were added to the cells for 2 h. Human lung fibroblasts have been described previously.16 Scleroderma fibroblasts were purchased from the European Collection of Cell Cultures (cell line BM0070) and derived from the skin of a scleroderma patient. MEFs were derived from knock-in mice in which the 5′SL of the collagen α1(I) gene has been mutated (Parsons et al., submitted). Several independent cell isolates were used throughout the study. All cells were cultured in Dulbecco's modified Eagle's medium supplemented with 10% fetal bovine serum for up to 10 passages. […] [^32P]dCTP was included in the PCR step to label the products, which were resolved on sequencing gels, as described previously.^8,31,49,50 When RNA from polysomal fractions was analyzed, an equal aliquot of each fraction was used. […]\nProtein concentration was estimated by the Bradford assay, with bovine serum albumin as standard.^51 Western blot analyses of cellular proteins were performed using 50 μg of protein. […] The medium was collected, and an aliquot was analyzed directly by Western blot analysis. […]"}, "[2]": {"test_system": "polysomes", "experiment": "Fractionation of polysomes on sucrose gradients", "type": "cell-based, human", "description": "ML-7, blebbistatin, cytochalasin B, puromycin, and cycloheximide were purchased from Sigma. ML-7 was used at 40 μM, blebbistatin was used at 100 μM, and cytochalasin B was used at 20 μM. Cells were incubated with the drugs for 16 h before analysis. Puromycin (200 μg/ml) and cycloheximide (100 μg/ml) were added to the cells for 2 h. Human lung fibroblasts have been described previously.16 Scleroderma fibroblasts were purchased from the European Collection of Cell Cultures (cell line BM0070) and derived from the skin of a scleroderma patient. MEFs were derived from knock-in mice in which the 5′SL of the collagen α1(I) gene has been mutated (Parsons et al., submitted). Several independent cell isolates were used throughout the study. All cells were cultured in Dulbecco's modified Eagle's medium supplemented with 10% fetal bovine serum for up to 10 passages. Plasmid constructs and adenovirus preparation. The HA-tagged LARP6 clone and the deletion mutants have been described previously.^16 Adenoviruses were constructed by recloning of the constructs into the pAdCMVTRACK vector, followed by recombination with the pAdEasy vector and amplification, as described previously.^48 Expression of each construct was verified by Western blot analysis. The viruses made express both the full-size test protein and the green fluorescent protein (GFP), which is encoded by an independent transcription unit.^48 Expression of GFP served as control for viral transduction. RT-PCR analysis Total cellular RNA was isolated using an RNA isolation kit (Sigma). RT-PCRs were performed with 100 ng of total RNA or using rTth reverse transcriptase (Boca Scientific, Boca Raton, Fla.). [^32P]dCTP was included in the PCR step to label the products, which were resolved on sequencing gels, as described previously.^8,31,49,50 When RNA from polysomal fractions was analyzed, an equal aliquot of each fraction was used. The number of cycles was adjusted to within the linear range of the reaction. The primers used for RT-PCR were as follows: h-collagen α1(I), 5′ primer […] (SEQ ID NO:3) and 3′ primer […] (SEQ ID NO:4); h-collagen α2(I), 5′ primer […] (SEQ ID NO:5) and 3′ primer […] (SEQ ID NO:6).\nPolysomes were fractionated as described previously.^16 Sucrose fractions (0.5 ml) were collected, and total RNA was extracted by phenol/chloroform and isopropanol precipitation. Equivalent amounts of each fraction were analyzed by RT-PCR. Total proteins were extracted from sucrose fractions by trichloroacetic acid precipitation, and equivalent amounts were analyzed by Western blot analysis.\nOne of the roles of nonmuscle myosin filaments may be to present collagen mRNAs to ribosomes. Therefore, we assessed if the association of collagen mRNAs with nonmuscle myosin is dependent on intact polysomes. […] Only the anti-myosin antibody immunoprecipitated collagen α1(I) and α2(I) mRNAs (lane 1). We then immunoprecipitated nonmuscle myosin from lung fibroblasts treated with cycloheximide or puromycin and analyzed if this can change the pull-down of collagen mRNAs. As control, the association with vimentin was analyzed in the same samples (FIG. 9b). […] The association of collagen mRNAs with vimentin increased after the dissociation of polysomes (lanes 3 and 4). […] To assess if nonmuscle myosin copurifies with polysomes, we fractionated polysomes on sucrose gradients^16 and analyzed for the presence of nonmuscle myosin in the fractions using Western blot analysis (FIG. 9f). […]"}}, "data": [{"smiles": "O=S(=O)(c1cccc2c(I)cccc12)N1CCCNCC1", "note": "[ML-7]", "values": [{"measurement": "myosin IIB immunostaining (filaments)", "setting": "[1]", "value": "myosin staining is confined around the nucleus"}, {"measurement": "nonmuscle myosin in polysomal fractions", "setting": "[2]; 15-45% sucrose gradient, Western blot, puromycin or ML-7 treatment", "value": "decrease in the amount of nonmuscle myosin in the heaviest fractions"}, {"measurement": "distribution of collagen α1(I) and α2(I) mRNAs in polysomal fractions", "setting": "[2]; ML-7-treated vs control cells, RT-PCR of fractions", "value": "a small fraction of collagen α1(I) and α2(I) mRNAs were shifted into nonpolysomal fractions 16 and 17"}, {"measurement": "overall distribution of polysomes", "setting": "[2]; ML-7 treatment", "value": "did not have an effect"}, {"measurement": "total level of collagen α1(I) and α2(I) mRNAs", "setting": "[2]; ML-7 treatment, RT-PCR, sum of all fractions", "value": "not significantly affected"}]}]}
